Test results taken from EP4660190A1, “PHARMACEUTICALLY ACCEPTABLE SALT OF COMPOUND AND PREPARATION METHOD THEREFOR” (Jiangsu Chia Tai Fenghai Pharmaceutical Co., Ltd., priority 2023, dated 2024).

Legend:
[1] = Pharmacokinetic test in rats; type: in vivo, Male SD rats; settings: rat; p.o. 10 mg/kg vs i.v. 1 mg/kg
Experimental: Male SD rats (weighing 180-260g) were administered with the compound of formula (I) intravenously at a dose of 1.0 mg/kg via tail vein injection, and orally at a dose of 10.0 mg/kg. Each group consisted of 3 animals. The solvent for administration was a solution of 5% DMSO + 5% polyethoxylated castor oil (Cremophor EL) in normal saline. The rats were fasted for about 12 h before administration and were given ad libitum access to food 4 h after administration, and water was available all the time. Blood was collected from the orbit at about 0.2 mL before administration and 5 min, 15 min, 30 min, 1 h, 2 h, 4 h, 6 h, 8 h, and 24 h after administration. The samples were placed in EDTA-K2 anticoagulant EP tubes in an ice bath, and subjected to low-speed centrifugation at 4°C and 3500 rpm for 10 min to isolate plasma, which was then stored at -20°C before analysis. The plasma concentration of the compound of formula (I) was determined using liquid chromatography-tandem mass spectrometry (LC-MS/MS). Pharmacokinetic parameters were calculated from the analysis results of the samples using WinNonlin software.

[2] = test system: Middle cerebral artery occlusion (MCAO) models of SD rata; assay: Rat MCAO model, 28-day dosing, novel object recognition test; type: in vivo, SD rats; settings: test on D27, Mean±SD
Experimental: Middle cerebral artery occlusion (MCAO) models of SD rata were constructed by using the suture occlusion method. The rats were administered with the test compound for 28 consecutive days. The pharmacodynamic evaluation on the test compound for cerebral stroke was obtained based on general observation and neurobehavioral assessment. […] The ECA was ligated. The ICA was temporarily occluded. Sutures were threaded at both the proximal end and the distal end of CCA. The distal end was securely ligated, and a loosely tied knot was placed at the proximal end. A small incision was made on the CCA between these two sutures. […] The threading was halted temporarily when reaching the artery clamp of ICA. The pre-ligation suture was further tightened. The artery clamp blocking the blood flow in the ICA was removed, allowing the suture occlusion to be advanced into the ICA until it entered the intracranial region. […] The insertion was stopped at the moment, and the time was recorded. The artery clamp on the CCA was removed and the incision was closed after no active bleeding was observed. The ischemic rats were placed at room temperature to keep their body temperature at 37°C, and anesthesia induction could be carried out 120min later. The suture was slowly and gradually withdrawn under anesthesia until the proximal end retracted into the ECA, thereby initiating reperfusion of the middle cerebral artery. Animals received the designated dosage immediately (within 10 min) after reperfusion. This dosing regimen continued once daily for a duration of 28 days, with the day of operation being defined as D1 (Day 0). […] After the completion of the 28-day dosing period, all surviving animals in the study were euthanized, and their brains were rapidly collected for pathological analysis. […] Table 8 Results of Grid Walking Test (2) A novel object recognition test was performed on the last day of the treatment and the novel object recognition index (NRI) of animals in each group was calculated. […] The result has shown that Compound (I) has significant effect on animals with cognitive impairment caused by stroke (see details in Table 9). Table 9 Results of novel object recognition tests

[3] = test system: TDP-43-A315T transgenic mice of ALS model; assay: TDP-43-A315T ALS mice, rotarod test; type: in vivo; settings: Mean±SEM
[4] = test system: Middle cerebral artery occlusion (MCAO) models of SD rats; assay: Rat MCAO model, 7 daily doses, neurobehavioral scoring (Bederson, NSS); type: in vivo; design: scale not given here; settings: for NSS: 60mg/kg
Source text: Middle cerebral artery occlusion (MCAO) models of SD rats were constructed using the suture occlusion method to evaluate the neuroprotective effect of the compound on neurons of rats after cerebral ischemia-reperfusion. […] The ECA was ligated. The ICA was temporarily occluded. Sutures were threaded at both the proximal end and the distal end of CCA. The distal end was securely ligated, and a loosely tied knot was placed at the proximal end. A small incision was made on the CCA between these two sutures. […] The threading was halted temporarily when reaching the artery clamp of ICA. The pre-ligation suture was further tightened. The artery clamp blocking the blood flow in the ICA was removed, allowing the suture occlusion to be advanced into the ICA until it entered the intracranial region. […] The insertion was stopped at the moment, and the time was recorded. The artery clamp on the CCA was removed and the incision was closed after no active bleeding was observed. The ischemic rats were placed at room temperature to keep their body temperature at 37°C, and anesthesia induction could be carried out 120min later. The suture was slowly and gradually withdrawn when the rats were maintained under anesthesia, so that the proximal end of the suture returned to the ECA, thereby initiating reperfusion of the middle cerebral artery. […] A single dose was administered immediately after reperfusion (within 10 minutes), followed by one dose per day for a total of 7 consecutive doses (including the first dose). Except for the initial administration, all subsequent doses were given between 4:00 PM and 7:00 PM each day. […] Animals were euthanized 7 days after ischemia reperfusion, and the brains were rapidly taken, frozen, and dissected for TTC staining. The normal tissues were rose-red after staining, and the infarcted tissues were white. The infarct size (%) percentage, calculated as the weight of infarcted tissues to the weight of the whole brain, is used to evaluate the degree of cerebral ischemic injury in rats. […] Table 12 Cerebral infarct size and cerebral infarction inhibition rate of experimental animals (2) Neurobehavioral scoring: […] Table 13: Results of Neurobehavioral Scores in Animals

Molecule: CCC/C(O)=C1/C(=O)Oc2ccccc21 [Compound (I)]
- F [1]: 144.2%
- Recognition index (%) Familiar object ([2]; high dose 20mg/kg p.o. q.d.): 28.34± 17.06%
- Sniffing time (S) Familiar object ([2]; high dose 20mg/kg p.o. q.d.): 2.20± 1.66 S
- Sniffing time (S) Novel object ([2]; high dose 20mg/kg p.o. q.d.): 5.62± 3.60 S
- Recognition index (%) Novel object ([2]; high dose 20mg/kg p.o. q.d., 20 mg/kg): 71.66±17.06%
- Recognition index (%) Familiar object ([2]; low dose 6mg/kg p.o. q.d.): 29.02± 22.60%
- Sniffing time (S) Familiar object ([2]; low dose 6mg/kg p.o. q.d.): 1.54± 1.10 S
- Sniffing time (S) Novel object ([2]; low dose 6mg/kg p.o. q.d.): 4.74± 3.61 S
- Recognition index (%) Novel object ([2]; low dose 6mg/kg p.o. q.d., 6 mg/kg): 70.98±22.60%

Molecule: (Z)-3-(1-hydroxybutenyl)benzofuran-2-one tromethamine salt [Example 10]
- Rotarod performance ([3]; female mice, 20mg/kg, Dosing Schedule (weeks) 2): 287.0 ± 8.449 s
- Rotarod performance ([3]; female mice, 20mg/kg, Dosing Schedule (weeks) 4): 288.6 ± 7.796 s
- Rotarod performance ([3]; female mice, 20mg/kg, Dosing Schedule (weeks) 6): 285.4 ± 6.626 s
- Rotarod performance ([3]; female mice, 20mg/kg, Dosing Schedule (weeks) 8): 266.3 ± 14.55 s
- Rotarod performance ([3]; female mice, 20mg/kg, Dosing Schedule (weeks) 10): 254.2 ± 12.62 s
- Rotarod performance ([3]; female mice, 20mg/kg, Dosing Schedule (weeks) 12): 266.2 ± 14.94 s
- Rotarod performance ([3]; female mice, 20mg/kg, Dosing Schedule (weeks) 14): 272.3 ± 10.62 s
- Rotarod performance ([3]; female mice, 20mg/kg, Dosing Schedule (weeks) 16): 267.8 ± 16.51 s
- Rotarod performance ([3]; female mice, 40mg/kg p.o., Dosing Schedule (weeks) 2): 273.6 ± 12.14 s
- Rotarod performance ([3]; female mice, 40mg/kg p.o., Dosing Schedule (weeks) 4): 271.4 ± 10.22 s
- Rotarod performance ([3]; female mice, 40mg/kg p.o., Dosing Schedule (weeks) 6): 269.5 ± 8.270 s
- Rotarod performance ([3]; female mice, 40mg/kg p.o., Dosing Schedule (weeks) 8): 275.6 ± 9.651 s
- Rotarod performance ([3]; female mice, 40mg/kg p.o., Dosing Schedule (weeks) 10): 260.6 ± 12.34 s
- Rotarod performance ([3]; female mice, 40mg/kg p.o., Dosing Schedule (weeks) 12): 270.6 ± 9.446 s
- Rotarod performance ([3]; female mice, 40mg/kg p.o., Dosing Schedule (weeks) 14): 256.3 ± 10.00 s
- Rotarod performance ([3]; female mice, 40mg/kg p.o., Dosing Schedule (weeks) 16): 236.5 ± 15.50 s
- Rotarod performance ([3]; male mice, 40mg/kg p.o., Dosing Schedule (weeks) 6): 272.9 ± 7.148 s
- Rotarod performance ([3]; male mice, 40mg/kg p.o., Dosing Schedule (weeks) 8): 267.5 ± 9.357 s
- Rotarod performance ([3]; male mice, 40mg/kg p.o., Dosing Schedule (weeks) 10): 275.8 ± 10.38 s
- Rotarod performance ([3]; male mice, 40mg/kg p.o., Dosing Schedule (weeks) 11): 224.3 ± 26.08 s
- Rotarod performance ([3]; male mice, 40mg/kg p.o., Dosing Schedule (weeks) 12): 182.1 ± 40.34 s
- Rotarod performance ([3]; male mice, 40mg/kg p.o., Dosing Schedule (weeks) 13): 154.2 ± 30.27 s
- Rotarod performance ([3]; male mice, 60mg/kg p.o., Dosing Schedule (weeks) 6): 295.6 ± 3.322 s
- Rotarod performance ([3]; male mice, 60mg/kg p.o., Dosing Schedule (weeks) 8): 275.1 ± 11.91 s
- Rotarod performance ([3]; male mice, 60mg/kg p.o., Dosing Schedule (weeks) 10): 267.3 ± 10.94 s
- Rotarod performance ([3]; male mice, 60mg/kg p.o., Dosing Schedule (weeks) 11): 263.0 ± 12.54 s
- Rotarod performance ([3]; male mice, 60mg/kg p.o., Dosing Schedule (weeks) 12): 266.3 ± 17.99 s
- Rotarod performance ([3]; male mice, 60mg/kg p.o., Dosing Schedule (weeks) 13): 209.0 ± 31.68 s
- Bederson ([4]; rat, in vivo): 3.00± 0.00

Molecule: CCCCC1OC(=O)c2ccccc21 (stereo not shown) [Butylphthalide, butylphthalide, reference compound]
- Sniffing time (S) Familiar object ([2]; 60mg/kg p.o. q.d.): 1.60± 1.01 S
- Sniffing time (S) Novel object ([2]; 60mg/kg p.o. q.d.): 4.94± 3.60 S
- Bederson ([4]; 60mg/kg group, score after surgery, Mean±SD): 3.00± 0.00
- NSS ([4]; D0 (one day before surgery), Mean±SD): 0.00± 0.00
- NSS ([4]; D2 (1 day after surgery), Mean±SD): 6.71± 1.36
- NSS ([4]; D4 (3 days after surgery), Mean±SD): 5.75±0.92
- NSS ([4]; D6 (5 days after surgery), Mean±SD): 4.88± 1.73
- NSS ([4]; D8 (7 days after surgery), Mean±SD): 4.04±1.20
